Laboratory results from ChEMBL document CHEMBL4000200, “Structure-activity relationships of 4-hydroxy-4-biaryl-proline acylsulfonamide tripeptides: A series of potent NS3 protease inhibitors for the treatment of hepatitis C virus” (Bioorg Med Chem Lett, 2017).

Assays:
Heart [1] = assay: Cardiotoxicity in Langendorff perfused rabbit heart assessed as heart rate at 10 uM perfused for 10 mins (reference value: -1 +/- 1%); type: toxicity, tissue-based, Oryctolagus cuniculus
Heart [2] = assay: Cardiotoxicity in Langendorff perfused rabbit heart assessed as heart rate at 10 uM perfused for 20 mins (reference value: -3 +/- 3%); type: toxicity, tissue-based, Oryctolagus cuniculus
Heart [3] = assay: Cardiotoxicity in Langendorff perfused rabbit heart assessed as sinoatrial node recovery time at 10 uM perfused for 10 mins (reference value: 3 +/- 1%); type: toxicity, tissue-based, Oryctolagus cuniculus
Heart [4] = assay: Cardiotoxicity in Langendorff perfused rabbit heart assessed as sinoatrial node recovery time at 10 uM perfused for 20 mins (reference value: 4 +/- 5%); type: toxicity, tissue-based, Oryctolagus cuniculus
Heart [5] = assay: Cardiotoxicity in Langendorff perfused rabbit heart assessed as coronary flow at 10 uM perfused for 10 mins (reference value: -4 +/- 6%); type: toxicity, tissue-based, Oryctolagus cuniculus
Heart [6] = assay: Cardiotoxicity in Langendorff perfused rabbit heart assessed as coronary flow at 10 uM perfused for 20 mins (reference value: -6 +/- 8%); type: toxicity, tissue-based, Oryctolagus cuniculus
[7] = Inhibition of HCV genotype 1a NS3/4A protease; set-up: species or system Hepatitis C virus subtype 1a
[8] = Permeability of the compound at pH 5.5 by PAMPA; type: physicochemical; conditions: read-out: permeability
[9] = Permeability of the compound at pH 7.4 by PAMPA; type: physicochemical; conditions: read-out: permeability
[10] = AUC in id dosed rat plasma after 4 hrs; type: ADME, organism-based; set-up: time < 4 hr
[11] = Drug uptake in id dosed rat liver after 4 hrs; type: ADME, organism-based; conditions: read-out: Drug uptake
Hepatitis C virus = assay: Antiviral activity against HCV genotype 1b by cell based replicon assay; type: functional, Hepacivirus hominis
[12] = Oral bioavailability in rat at 15 mg/kg after 24 hrs; type: ADME, organism-based; conditions: in vivo
[13] = AUC in rat at 15 mg/kg, po after 24 hrs; type: ADME, organism-based; set-up: dose 15 mg/kg, time < 24 hr, route oral; conditions: in vivo
[14] = Clearance in rat at 5 mg/kg, iv; type: ADME, organism-based; conditions: in vivo
[15] = Half life in rat at 5 mg/kg, iv; type: ADME, organism-based; conditions: in vivo
[16] = Drug uptake in rat liver at 15 mg/kg, po after 24 hrs; type: ADME, organism-based; conditions: read-out: Drug uptake

## C=C[C@@H]1C[C@]1(NC(=O)[C@@H]1C[C@@H](Oc2ncc(OC)c3ccc(Cl)cc23)CN1C(=O)[C@@H](NC(=O)OC(C)(C)C)C(C)(C)C)C(=O)NS(=O)(=O)C1CC1
Heart [1]
  Activity: 1%
Heart [2]
  Activity: -1%
Heart [3]
  Activity: -1%
Heart [4]
  Activity: 4%
Heart [5]
  Activity: -3%
Heart [6]
  Activity: -1%

## C=C[C@@H]1C[C@]1(NC(=O)[C@@H]1C[C@@H](Oc2nccc3cc(OC)ccc23)CN1C(=O)[C@@H](NC(=O)OC(C)(C)C)C(C)(C)C)C(=O)NS(=O)(=O)C1CC1
[7]
  IC50: 0.001 to 0.002 µM
[8]
  Papp: 57.4 ×10⁻⁶ cm/s
[9]
  Papp: 17.8 ×10⁻⁶ cm/s
[10]
  AUC at 4 h: 10.4 µM·h
[11]
  concentration at 4 h: 64700 ng/g
Heart [1]
  Activity: -13%
Heart [2]
  Activity: -32%
Heart [3]
  Activity: 69%
Heart [4]
  Activity: 360%
Heart [5]
  Activity: 12%
Heart [6]
  Activity: 10%

## C=C[C@@H]1C[C@]1(NC(=O)[C@@H]1C[C@@](O)(c2cccc(C)c2)CN1C(=O)[C@@H](NC(=O)OC(C)(C)C)C(C)(C)C)C(=O)NS(=O)(=O)C1CC1
[7]
  IC50: 0.076 µM
Hepatitis C virus
  EC50: 3.27 µM

## C=C[C@@H]1C[C@]1(NC(=O)[C@@H]1C[C@@](O)(c2cccc(OC(C)C)c2)CN1C(=O)[C@@H](NC(=O)OC(C)(C)C)C(C)(C)C)C(=O)NS(=O)(=O)C1CC1
[7]
  IC50: 0.101 µM
Hepatitis C virus
  EC50: 6.25 µM

## C=C[C@@H]1C[C@]1(NC(=O)[C@@H]1C[C@@](O)(c2cc(F)ccc2OC)CN1C(=O)[C@@H](NC(=O)OC(C)(C)C)C(C)(C)C)C(=O)NS(=O)(=O)C1CC1
[7]
  IC50: 0.728 µM
Hepatitis C virus
  EC50: 3.94 µM

## C=C[C@@H]1C[C@]1(NC(=O)[C@@H]1C[C@@](O)(c2ccc3ccccc3c2)CN1C(=O)[C@@H](NC(=O)OC(C)(C)C)C(C)(C)C)C(=O)NS(=O)(=O)C1CC1
[7]
  IC50: 0.026 µM
Hepatitis C virus
  EC50: 0.412 µM

## C=C[C@@H]1C[C@]1(NC(=O)[C@@H]1C[C@@](O)(c2ccc(OC)cc2)CN1C(=O)[C@@H](NC(=O)OC(C)(C)C)C(C)(C)C)C(=O)NS(=O)(=O)C1CC1
[7]
  IC50: 0.105 µM
Hepatitis C virus
  EC50: 1.47 µM

## C=C[C@@H]1C[C@]1(NC(=O)[C@@H]1C[C@@](O)(c2ccc(-c3nccs3)cc2)CN1C(=O)[C@@H](NC(=O)OC(C)(C)C)C(C)(C)C)C(=O)NS(=O)(=O)C1CC1
[7]
  IC50: 0.002 µM
Hepatitis C virus
  EC50: 0.041 µM

## C=C[C@@H]1C[C@]1(NC(=O)[C@@H]1C[C@@](O)(c2cccc(C(C)C)c2)CN1C(=O)[C@@H](NC(=O)OC(C)(C)C)C(C)(C)C)C(=O)NS(=O)(=O)C1CC1
[7]
  IC50: 0.703 µM
Hepatitis C virus
  EC50: 8.37 µM

## C=C[C@@H]1C[C@]1(NC(=O)[C@@H]1C[C@@](O)(c2ccc(F)c(C)c2)CN1C(=O)[C@@H](NC(=O)OC(C)(C)C)C(C)(C)C)C(=O)NS(=O)(=O)C1CC1
[7]
  IC50: 0.134 µM
Hepatitis C virus
  EC50: 7.7 µM

## C=C[C@@H]1C[C@]1(NC(=O)[C@@H]1CC(=O)CN1C(=O)[C@@H](NC(=O)OC(C)(C)C)C(C)(C)C)C(=O)NS(=O)(=O)C1CC1
[7]
  IC50: 3.9 µM
Hepatitis C virus
  EC50: 70.7 µM

## C=C[C@@H]1C[C@]1(NC(=O)[C@@H]1C[C@@](O)(c2cccc(OC)c2)CN1C(=O)[C@@H](NC(=O)OC(C)(C)C)C(C)(C)C)C(=O)NS(=O)(=O)C1CC1
[7]
  IC50: 0.052 µM
Hepatitis C virus
  EC50: 3.7 µM

## C=C[C@@H]1C[C@]1(NC(=O)[C@@H]1C[C@@](O)(c2ccc(-c3ccccn3)cc2)CN1C(=O)[C@@H](NC(=O)OC(C)(C)C)C(C)(C)C)C(=O)NS(=O)(=O)C1CC1
[7]
  IC50: 0.002 µM
Hepatitis C virus
  EC50: 0.039 µM

## C=C[C@@H]1C[C@]1(NC(=O)[C@@H]1C[C@@](O)(c2ccc(Oc3ccccc3)cc2)CN1C(=O)[C@@H](NC(=O)OC(C)(C)C)C(C)(C)C)C(=O)NS(=O)(=O)C1CC1
[7]
  IC50: 0.05 µM
Hepatitis C virus
  EC50: 0.265 µM

## C=C[C@@H]1C[C@]1(NC(=O)[C@@H]1C[C@@](O)(c2cc(C)cc(C)c2)CN1C(=O)[C@@H](NC(=O)OC(C)(C)C)C(C)(C)C)C(=O)NS(=O)(=O)C1CC1
[7]
  IC50: 0.08 µM
Hepatitis C virus
  EC50: 6.45 µM

## C=C[C@@H]1C[C@]1(NC(=O)[C@@H]1C[C@@](O)(c2cccc(Cl)c2)CN1C(=O)[C@@H](NC(=O)OC(C)(C)C)C(C)(C)C)C(=O)NS(=O)(=O)C1CC1
[7]
  IC50: 0.08 µM
Hepatitis C virus
  EC50: 3.66 µM

## C=C[C@@H]1C[C@]1(NC(=O)[C@@H]1C[C@@](O)(c2cccc(CN3CCOCC3)c2)CN1C(=O)[C@@H](NC(=O)OC(C)(C)C)C(C)(C)C)C(=O)NS(=O)(=O)C1CC1
[7]
  IC50: 0.162 µM
Hepatitis C virus
  EC50: 3.46 µM

## C=C[C@@H]1C[C@]1(NC(=O)[C@@H]1C[C@@](O)(c2ccc(-c3ccccc3)cc2)CN1C(=O)[C@@H](NC(=O)OC(C)(C)C)C(C)(C)C)C(=O)NS(=O)(=O)C1CC1
[7]
  IC50: 0.004 µM
Hepatitis C virus
  EC50: 0.022 to 0.026 µM
[8]
  Papp: 7.9 ×10⁻⁶ cm/s
[9]
  Papp: 21.1 ×10⁻⁶ cm/s
[10]
  AUC at 4 h: 0.9 µM·h
[11]
  concentration at 4 h: 128 ng/g
Heart [1]
  Activity: -2%
Heart [2]
  Activity: -4%
Heart [3]
  Activity: 2%
Heart [4]
  Activity: 7%
Heart [5]
  Activity: 2%
Heart [6]
  Activity: -2%

## C=C[C@@H]1C[C@]1(NC(=O)[C@@H]1C[C@@](O)(c2ccc(F)cc2)CN1C(=O)[C@@H](NC(=O)OC(C)(C)C)C(C)(C)C)C(=O)NS(=O)(=O)C1CC1
[7]
  IC50: 0.19 µM
Hepatitis C virus
  EC50: 2.47 µM

## C=C[C@@H]1C[C@]1(NC(=O)[C@@H]1C[C@@](O)(c2ccc(-n3cccc3)cc2)CN1C(=O)[C@@H](NC(=O)OC(C)(C)C)C(C)(C)C)C(=O)NS(=O)(=O)C1CC1
[7]
  IC50: 0.007 µM
Hepatitis C virus
  EC50: 0.097 µM

## C=C[C@@H]1C[C@]1(NC(=O)[C@@H]1C[C@@](O)(c2cccc(N(C)C)c2)CN1C(=O)[C@@H](NC(=O)OC(C)(C)C)C(C)(C)C)C(=O)NS(=O)(=O)C1CC1
[7]
  IC50: 0.96 µM
Hepatitis C virus
  EC50: 3.4 µM

## C=C[C@@H]1C[C@]1(NC(=O)[C@@H]1C[C@@](O)(c2ccc(C)c(F)c2)CN1C(=O)[C@@H](NC(=O)OC(C)(C)C)C(C)(C)C)C(=O)NS(=O)(=O)C1CC1
[7]
  IC50: 0.568 µM
Hepatitis C virus
  EC50: 4.24 µM

## C=C[C@@H]1C[C@]1(NC(=O)[C@@H]1C[C@@](O)(c2nc3ccccc3s2)CN1C(=O)[C@@H](NC(=O)OC(C)(C)C)C(C)(C)C)C(=O)NS(=O)(=O)C1CC1
[7]
  IC50: 0.127 µM
Hepatitis C virus
  EC50: 1.12 µM

## C=C[C@@H]1C[C@]1(NC(=O)[C@@H]1C[C@@](O)(c2cccc(F)c2)CN1C(=O)[C@@H](NC(=O)OC(C)(C)C)C(C)(C)C)C(=O)NS(=O)(=O)C1CC1
[7]
  IC50: 0.057 µM
Hepatitis C virus
  EC50: 4.06 µM

## C=C[C@@H]1C[C@]1(NC(=O)[C@@H]1C[C@@](O)(c2ccc(-c3ccccc3OC)cc2)CN1C(=O)[C@@H](NC(=O)OC(C)(C)C)C(C)(C)C)C(=O)NS(=O)(=O)C1CC1
[7]
  IC50: 0.005 µM
Hepatitis C virus
  EC50: 0.024 µM

## C=C[C@@H]1C[C@]1(NC(=O)[C@@H]1C[C@@](OC)(c2ccc(-c3ccccc3)cc2)CN1C(=O)[C@@H](NC(=O)OC(C)(C)C)C(C)(C)C)C(=O)NS(=O)(=O)C1CC1
[7]
  IC50: 0.002 µM
Hepatitis C virus
  EC50: 0.009 µM
[8]
  Papp: 38.1 ×10⁻⁶ cm/s
[9]
  Papp: 43.8 ×10⁻⁶ cm/s
[10]
  AUC at 4 h: 2.45 µM·h
[11]
  concentration at 4 h: 195000 ng/g
[12]
  bioavailability: 58%
[13]
  AUC at 24 h: 14.1 µM·h
[14]
  clearance: 17.8 mL/min/kg
[15]
  half-life: 4.6 h
[16]
  concentration at 24 h: 1100 nM
Heart [1]
  Activity: -6%
Heart [2]
  Activity: -3%
Heart [3]
  Activity: 8%
Heart [4]
  Activity: 7%
Heart [5]
  Activity: 27%
Heart [6]
  Activity: 20%

## C=C[C@@H]1C[C@]1(NC(=O)[C@@H]1C[C@@](O)(c2ccccc2CN2CCOCC2)CN1C(=O)[C@@H](NC(=O)OC(C)(C)C)C(C)(C)C)C(=O)NS(=O)(=O)C1CC1
[7]
  IC50: 0.291 µM
Hepatitis C virus
  EC50: 4.95 µM

## C=CC[C@]1(O)C[C@@H](C(=O)N[C@]2(C(=O)NS(=O)(=O)C3CC3)C[C@H]2C=C)N(C(=O)[C@@H](NC(=O)OC(C)(C)C)C(C)(C)C)C1
[7]
  IC50: 1.5 µM
Hepatitis C virus
  EC50: 30.5 µM

## C=C[C@@H]1C[C@]1(NC(=O)[C@@H]1C[C@@](O)(c2cccc(-c3ccc(OC)cc3)c2)CN1C(=O)[C@@H](NC(=O)OC(C)(C)C)C(C)(C)C)C(=O)NS(=O)(=O)C1CC1
[7]
  IC50: 0.62 µM
Hepatitis C virus
  EC50: 3.21 µM

## C=C[C@@H]1C[C@]1(NC(=O)[C@@H]1C[C@@](O)(c2ccccc2)CN1C(=O)[C@@H](NC(=O)OC(C)(C)C)C(C)(C)C)C(=O)NS(=O)(=O)C1CC1
[7]
  IC50: 0.14 µM
Hepatitis C virus
  EC50: 2.36 µM

## C=C[C@@H]1C[C@]1(NC(=O)[C@@H]1C[C@@](O)(c2cc(C)ccc2C)CN1C(=O)[C@@H](NC(=O)OC(C)(C)C)C(C)(C)C)C(=O)NS(=O)(=O)C1CC1
[7]
  IC50: 0.136 µM
Hepatitis C virus
  EC50: 2.31 µM
